Assay in all cases: biochemical
The target in one assay is T1, G9a (Homo sapiens, UniProt Q96KQ7).
T1 construct: gene EHMT2
T1 sequence (Q96KQ7 1-1210): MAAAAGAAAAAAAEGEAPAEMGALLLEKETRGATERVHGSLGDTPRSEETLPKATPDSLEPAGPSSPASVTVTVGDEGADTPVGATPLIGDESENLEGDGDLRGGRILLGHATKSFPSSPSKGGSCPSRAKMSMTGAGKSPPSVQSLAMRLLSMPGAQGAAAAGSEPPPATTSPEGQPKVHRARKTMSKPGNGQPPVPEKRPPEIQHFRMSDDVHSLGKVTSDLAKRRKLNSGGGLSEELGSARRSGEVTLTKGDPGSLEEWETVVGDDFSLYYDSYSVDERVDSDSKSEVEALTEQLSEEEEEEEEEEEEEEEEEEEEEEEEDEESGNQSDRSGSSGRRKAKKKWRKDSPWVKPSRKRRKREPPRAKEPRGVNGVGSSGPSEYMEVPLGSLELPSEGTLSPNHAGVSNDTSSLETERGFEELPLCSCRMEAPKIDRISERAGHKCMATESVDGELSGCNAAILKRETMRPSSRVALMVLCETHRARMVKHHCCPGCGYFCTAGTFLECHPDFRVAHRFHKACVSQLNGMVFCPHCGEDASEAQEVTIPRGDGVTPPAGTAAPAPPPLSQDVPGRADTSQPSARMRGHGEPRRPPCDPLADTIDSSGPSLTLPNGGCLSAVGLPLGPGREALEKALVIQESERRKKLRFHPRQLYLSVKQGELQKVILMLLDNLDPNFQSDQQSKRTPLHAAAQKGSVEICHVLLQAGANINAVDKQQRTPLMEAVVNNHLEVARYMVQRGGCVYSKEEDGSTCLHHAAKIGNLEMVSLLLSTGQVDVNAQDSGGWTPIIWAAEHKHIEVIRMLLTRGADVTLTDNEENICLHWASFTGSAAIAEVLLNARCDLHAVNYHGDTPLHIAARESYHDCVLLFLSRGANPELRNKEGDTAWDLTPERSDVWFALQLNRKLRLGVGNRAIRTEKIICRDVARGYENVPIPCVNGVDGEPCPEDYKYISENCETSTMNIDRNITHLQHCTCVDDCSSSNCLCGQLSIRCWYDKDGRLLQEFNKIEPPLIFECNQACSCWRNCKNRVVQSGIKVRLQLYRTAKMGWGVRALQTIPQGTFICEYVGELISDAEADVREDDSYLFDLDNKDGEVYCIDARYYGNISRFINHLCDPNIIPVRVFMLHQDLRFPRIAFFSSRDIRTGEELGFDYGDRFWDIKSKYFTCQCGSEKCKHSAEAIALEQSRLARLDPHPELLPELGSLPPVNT
Set-up: protein methyltransferase inhibition panel, single concentration, duplicate. As to the method: (§1) We next assessed selectivity of MS67 against 22 protein methyltransferases (table S2) and a broad panel of common drug targets including 45 kinases (table S3) and 44 G protein–coupled receptors (GPCR), ion channels, and transporters (table S4). […] We subsequently determined that MS67 had moderate binding affinity (Ki = 1.0 ± 0.8 μM) to Sigma 2 receptor (fig. S10).

The target in a further assay is EZH2 Complex (Homo sapiens, UniProt Q15910). On the set-up: Complex; protein methyltransferase selectivity panel, enzyme activity relative to DMSO controls, single concentration in duplicate. Conditions: Substrate:=Core Histone. As to the method:
as §1

The target of the next assay is PRMT5/MEP50 Complex (Homo sapiens, UniProt O14744). On the set-up: Complex; protein methyltransferase selectivity panel, enzyme activity relative to DMSO controls, single concentration in duplicate. Conditions: Substrate:=Histone H2A. As to the method:
as §1

For another assay, the target named is EZH1 Complex (Homo sapiens, UniProt Q92800). On the set-up: Complex; protein methyltransferase selectivity panel, enzyme activity relative to DMSO controls, single concentration in duplicate. As to conditions: Substrate:=Core Histone. On the procedure:
as §1

A further assay addresses SET1b Complex (Homo sapiens, UniProt Q9UPS6). On the set-up: gene SETD1B; complex; protein methyltransferase inhibition panel, single concentration, duplicate. On the procedure: as §1
Setting [1] is: read-out: Enzyme % Activity (relative to DMSO controls) / MS67 / 10 / Data 1:
Setting [2] is: read-out: Enzyme % Activity (relative to DMSO controls) / MS67 / 10 / Data 2:

The structures appear in SMILES notation. Read-outs that look alike come from different tables or passages of the source.

Sequence of PRMT5/MEP50 Complex (O14744 whole entry): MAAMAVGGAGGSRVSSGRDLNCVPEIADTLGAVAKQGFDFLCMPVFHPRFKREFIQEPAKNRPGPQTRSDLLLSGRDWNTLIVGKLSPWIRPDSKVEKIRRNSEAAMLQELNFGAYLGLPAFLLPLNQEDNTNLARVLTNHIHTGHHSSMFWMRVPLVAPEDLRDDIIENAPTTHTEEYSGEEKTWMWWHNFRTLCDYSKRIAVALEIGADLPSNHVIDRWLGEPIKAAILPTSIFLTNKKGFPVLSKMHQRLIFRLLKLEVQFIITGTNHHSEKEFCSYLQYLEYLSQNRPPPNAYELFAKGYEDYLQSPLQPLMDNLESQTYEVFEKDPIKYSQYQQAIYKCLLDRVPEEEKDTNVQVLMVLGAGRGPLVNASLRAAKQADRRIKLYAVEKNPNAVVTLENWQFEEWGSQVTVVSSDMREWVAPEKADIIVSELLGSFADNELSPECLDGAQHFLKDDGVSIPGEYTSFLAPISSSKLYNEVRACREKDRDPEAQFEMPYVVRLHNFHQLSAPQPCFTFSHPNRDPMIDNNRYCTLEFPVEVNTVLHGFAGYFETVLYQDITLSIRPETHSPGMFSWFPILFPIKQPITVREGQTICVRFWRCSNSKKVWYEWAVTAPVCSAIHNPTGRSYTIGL
Sequence of PRMT5/MEP50 Complex (Q9BQA1 whole entry partner): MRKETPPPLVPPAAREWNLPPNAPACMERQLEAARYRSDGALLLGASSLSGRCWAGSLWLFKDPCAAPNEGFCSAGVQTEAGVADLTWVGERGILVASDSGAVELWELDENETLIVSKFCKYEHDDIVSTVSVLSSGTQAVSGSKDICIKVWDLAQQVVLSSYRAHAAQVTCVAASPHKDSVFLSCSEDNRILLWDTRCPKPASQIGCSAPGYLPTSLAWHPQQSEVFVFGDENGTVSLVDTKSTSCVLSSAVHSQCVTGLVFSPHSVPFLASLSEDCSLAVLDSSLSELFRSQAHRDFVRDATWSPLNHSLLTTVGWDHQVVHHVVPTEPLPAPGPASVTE
Sequence of EZH1 Complex (Q92800 whole entry): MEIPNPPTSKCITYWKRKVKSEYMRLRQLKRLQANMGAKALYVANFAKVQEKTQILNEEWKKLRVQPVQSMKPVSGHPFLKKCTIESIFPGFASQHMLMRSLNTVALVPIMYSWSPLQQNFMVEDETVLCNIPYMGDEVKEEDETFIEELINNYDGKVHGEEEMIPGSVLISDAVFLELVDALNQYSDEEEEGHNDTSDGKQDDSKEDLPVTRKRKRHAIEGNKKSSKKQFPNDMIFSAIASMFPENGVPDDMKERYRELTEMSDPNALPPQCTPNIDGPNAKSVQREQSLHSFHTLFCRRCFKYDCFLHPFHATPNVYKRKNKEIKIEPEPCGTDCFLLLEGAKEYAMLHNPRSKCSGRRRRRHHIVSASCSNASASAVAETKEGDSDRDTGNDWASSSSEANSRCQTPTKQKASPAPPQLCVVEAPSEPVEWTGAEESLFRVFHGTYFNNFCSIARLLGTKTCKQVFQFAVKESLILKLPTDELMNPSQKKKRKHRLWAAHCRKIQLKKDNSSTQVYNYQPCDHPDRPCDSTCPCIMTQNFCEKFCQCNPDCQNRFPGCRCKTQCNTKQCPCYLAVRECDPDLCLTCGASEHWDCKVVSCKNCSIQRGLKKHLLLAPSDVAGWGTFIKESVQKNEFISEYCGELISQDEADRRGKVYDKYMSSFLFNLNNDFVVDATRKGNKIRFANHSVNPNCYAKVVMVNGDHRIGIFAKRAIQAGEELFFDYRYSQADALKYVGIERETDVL
Sequence of EZH1 Complex (O75530 whole entry partner): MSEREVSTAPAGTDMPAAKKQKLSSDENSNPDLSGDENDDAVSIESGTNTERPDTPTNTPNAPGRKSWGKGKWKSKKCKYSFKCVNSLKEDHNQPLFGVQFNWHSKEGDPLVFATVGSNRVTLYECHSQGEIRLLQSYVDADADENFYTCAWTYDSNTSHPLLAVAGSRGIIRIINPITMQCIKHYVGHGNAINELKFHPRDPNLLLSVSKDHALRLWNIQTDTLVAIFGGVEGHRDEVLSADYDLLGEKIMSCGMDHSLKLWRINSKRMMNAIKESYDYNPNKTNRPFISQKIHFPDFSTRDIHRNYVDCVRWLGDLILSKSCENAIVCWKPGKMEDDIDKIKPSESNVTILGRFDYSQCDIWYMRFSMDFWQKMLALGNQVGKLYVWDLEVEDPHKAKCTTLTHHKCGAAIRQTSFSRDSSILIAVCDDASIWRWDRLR
Sequence of EZH1 Complex (Q09028 whole entry partner): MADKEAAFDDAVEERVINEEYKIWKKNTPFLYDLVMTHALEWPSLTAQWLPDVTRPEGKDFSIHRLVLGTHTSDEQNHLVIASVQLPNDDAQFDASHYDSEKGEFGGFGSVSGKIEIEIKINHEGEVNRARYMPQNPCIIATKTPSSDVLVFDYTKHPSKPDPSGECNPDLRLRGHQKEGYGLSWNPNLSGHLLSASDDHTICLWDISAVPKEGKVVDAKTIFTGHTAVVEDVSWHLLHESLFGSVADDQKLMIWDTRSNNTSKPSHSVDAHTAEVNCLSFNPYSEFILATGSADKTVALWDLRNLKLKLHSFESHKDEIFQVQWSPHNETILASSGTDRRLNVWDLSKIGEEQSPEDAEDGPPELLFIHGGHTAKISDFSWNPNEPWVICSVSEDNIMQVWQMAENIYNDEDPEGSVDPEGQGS
Sequence of EZH1 Complex (Q15022 whole entry partner): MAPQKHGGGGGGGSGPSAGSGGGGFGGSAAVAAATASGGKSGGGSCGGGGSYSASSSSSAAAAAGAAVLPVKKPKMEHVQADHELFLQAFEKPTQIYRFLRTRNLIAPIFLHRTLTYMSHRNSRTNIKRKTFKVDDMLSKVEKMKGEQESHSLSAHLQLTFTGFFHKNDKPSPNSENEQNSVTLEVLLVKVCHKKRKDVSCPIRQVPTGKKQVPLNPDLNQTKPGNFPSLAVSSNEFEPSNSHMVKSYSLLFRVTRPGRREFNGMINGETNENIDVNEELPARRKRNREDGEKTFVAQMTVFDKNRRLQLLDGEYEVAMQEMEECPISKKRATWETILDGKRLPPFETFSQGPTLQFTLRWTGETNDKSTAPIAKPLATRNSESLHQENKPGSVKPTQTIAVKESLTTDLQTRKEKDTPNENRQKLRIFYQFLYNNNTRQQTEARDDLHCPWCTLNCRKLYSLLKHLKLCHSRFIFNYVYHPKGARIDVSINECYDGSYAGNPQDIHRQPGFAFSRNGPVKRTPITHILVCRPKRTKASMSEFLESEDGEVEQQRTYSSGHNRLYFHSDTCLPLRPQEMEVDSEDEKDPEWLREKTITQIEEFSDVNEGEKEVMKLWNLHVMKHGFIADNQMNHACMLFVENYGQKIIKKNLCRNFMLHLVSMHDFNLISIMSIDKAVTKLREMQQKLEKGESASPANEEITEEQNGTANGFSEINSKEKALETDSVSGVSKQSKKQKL
Sequence of EZH1 Complex (Q6ZN18 whole entry partner): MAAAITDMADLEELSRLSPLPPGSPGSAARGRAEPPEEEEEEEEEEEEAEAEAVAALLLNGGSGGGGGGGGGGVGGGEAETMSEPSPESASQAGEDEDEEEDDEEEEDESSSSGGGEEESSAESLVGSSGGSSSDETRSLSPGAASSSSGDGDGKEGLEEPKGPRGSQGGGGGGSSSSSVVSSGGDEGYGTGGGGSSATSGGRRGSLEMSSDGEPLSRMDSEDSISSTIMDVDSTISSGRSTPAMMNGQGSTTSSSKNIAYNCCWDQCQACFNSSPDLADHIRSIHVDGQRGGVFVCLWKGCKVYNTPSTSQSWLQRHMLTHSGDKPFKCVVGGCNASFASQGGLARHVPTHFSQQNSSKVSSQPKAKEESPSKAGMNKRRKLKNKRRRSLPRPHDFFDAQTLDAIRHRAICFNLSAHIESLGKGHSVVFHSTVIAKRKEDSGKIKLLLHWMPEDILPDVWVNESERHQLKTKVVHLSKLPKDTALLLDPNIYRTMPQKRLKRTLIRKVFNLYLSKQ
Sequence of EZH2 Complex (Q15910 whole entry): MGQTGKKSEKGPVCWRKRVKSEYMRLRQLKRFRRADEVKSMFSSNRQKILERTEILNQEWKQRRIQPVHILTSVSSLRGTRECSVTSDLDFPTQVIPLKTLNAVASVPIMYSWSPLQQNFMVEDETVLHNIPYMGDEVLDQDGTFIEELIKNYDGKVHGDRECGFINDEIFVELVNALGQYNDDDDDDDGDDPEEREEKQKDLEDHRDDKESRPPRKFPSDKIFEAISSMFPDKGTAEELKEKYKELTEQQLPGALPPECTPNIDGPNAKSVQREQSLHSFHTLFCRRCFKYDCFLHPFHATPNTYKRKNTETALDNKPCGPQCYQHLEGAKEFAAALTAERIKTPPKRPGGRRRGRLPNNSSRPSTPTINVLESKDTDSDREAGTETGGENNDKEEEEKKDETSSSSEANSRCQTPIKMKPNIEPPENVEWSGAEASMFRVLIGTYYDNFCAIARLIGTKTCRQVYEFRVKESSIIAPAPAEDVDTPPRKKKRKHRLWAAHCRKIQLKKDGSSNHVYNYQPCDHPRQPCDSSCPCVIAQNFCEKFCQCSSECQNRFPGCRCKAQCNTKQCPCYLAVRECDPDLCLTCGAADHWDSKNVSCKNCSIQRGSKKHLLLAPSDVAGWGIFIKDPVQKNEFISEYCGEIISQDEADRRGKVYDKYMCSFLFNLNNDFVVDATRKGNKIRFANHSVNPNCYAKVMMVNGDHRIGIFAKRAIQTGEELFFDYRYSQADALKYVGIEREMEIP
Sequence of EZH2 Complex (O75530 whole entry partner): as the sequence (O75530 whole entry partner) above
Sequence of EZH2 Complex (Q09028 whole entry partner): as the sequence (Q09028 whole entry partner) above
Sequence of EZH2 Complex (Q15022 whole entry partner): as the sequence (Q15022 whole entry partner) above
Sequence of EZH2 Complex (Q6ZN18 whole entry partner): as the sequence (Q6ZN18 whole entry partner) above

A word on the inhibition: it is the relative decrease from the control value, in per cent. A higher inhibition goes with strong suppression. Take `Cc1ncsc1-c1ccc([C@H](C)NC(=O)[C@@H]2C[C@@H](O)CN2C(=O)[C@@H](NC(=O)CNC(=O)c2ccc(F)c(-c3ccc(N4C[C@@H](C)N(C)[C@@H](C)C4)c(NC(=O)c4c[nH]c(=O)cc4C(F)(F)F)c3)c2)C(C)(C)C)cc1` [MS67]: the inhibition at 10 µM on G9a and at SET1b Complex was below 10% each time. Besides, the remaining activity at 10 µM at EZH2 Complex (setting [1]) worked out at 106%; on EZH2 Complex (setting [2]), 101%; on PRMT5/MEP50 Complex (setting [1]), 96.2%; on PRMT5/MEP50 Complex (setting [2]) it was 97.3%; on EZH1 Complex (setting [1]), 97.1%; at EZH1 Complex (setting [2]), 103%.

Source of the values: publication PMC8500670, “A selective WDR5 degrader inhibits acute myeloid leukemia in patient-derived mouse models” (Science translational medicine, 2021).
